What was measured:
[1] = T release rate comparison in saline incubation media; format: physicochemical; details: 2, 4 and 6 hours
Protocol: In order to compare the release rate results of hydrogel encapsulated T to pelleted T, larger gels had to be prepared as the T pellets which the hydrogels are intended to replace are 25 mg, where the E2 pellets are merely 6 mg. Thus, approximately 83 mg of hydrogel at 30% T loading and 1% HA were prepared. In order to achieve even or consistent crosslinking in these much larger hydrogel samples, Likarda's patented micromolds (shown in FIG. 21) were employed. After formation, the encapsulated T was removed from the molds and placed in tubes to be rotated for an hour. The encapsulated T hydrogels were then removed from the tubes and stored in Dulbecco's PBS buffer. The large hydrogel blocks encapsulating T were then tested and compared to 25 mg T pellets and micronized T powder.
The T powder was produced as a 2.5 mg/mL slurry in buffer to reach the near saturation point of T in the buffer. Samples of the T powder slurry were removed from only the top layer of the slurry fluid to avoid aspirating T particles in the slurry that may have precipitated at to the bottom. T pellets were collected directly from the vials in which they were stored. The 83 mg hydrogels containing 30% T were collected from Dulbecco's PBS buffer, rinsed, and dried. Each of the collected samples was then placed in a separate container of incubation media (saline in this instance) for the release studies. […]

[2] = cited from earlier work

| Structure (SMILES) | T release level / approximate saturation level of T in saline [1] | solubility in water compared to E2 [2] |
| --- | --- | --- |
| C[C@]12CC[C@H]3[C@@H](CCC4=CC(=O)CC[C@@]43C)[C@@H]1CC[C@@H]2O [T powder, Testosterone] | about 1.5 mg/L | – |
| C[C@]12CC[C@H]3[C@@H](CCC4=CC(=O)CC[C@@]43C)[C@@H]1CC[C@@H]2O [Testosterone (T), Testosterone] | – | much higher solubility factor in water compared to E2 |
